Experimental data as given in publication PMC11111636 (EJNMMI Radiopharmacy and Chemistry, 2024).

Tests used:
[1] = test system: H69-xenograft Balb/c nu/nu mice; assay: Ex vivo biodistribution in H69-tumor bearing mice; conditions: for Uptake in Tumor: i.v., n = 4
Experimental: (§1) Six-week‐old female Balb/c nu/nu‐specific mice (Janvier Labs, Le Genest‐Saint‐Isle, France) were housed in individually ventilated cages (4 mice/cage). Upon arrival, mice were acclimated for one week, with access to food and water ad libitum. Mice were subcutaneously inoculated on the right shoulder with NCI-H69 cells (5 × 10^6 cells) suspended in 100 μL of 1/3 Matrigel (Corning Inc.; Corning, NY, USA) and 2/3 Hank’s balanced salt solution (Gibco; Paisley, UK). NCI-H69 xenografts were allowed to grow for 2 weeks.
(§2) At 3 selected time points (1, 4 and 24 h; n = 4) p.i., blood was collected via retro-orbital puncture under isoflurane/O2 anesthesia, after which the mice were sacrificed via cervical dislocation. The tumor and organs of interest (heart, lungs, liver, spleen, stomach, large intestine, small intestine, pancreas, kidneys, muscle, skin, bone) were excised, washed in PBS and blotted dry. […] To determine the total injected radioactivity per animal, a calibration curve with indium-111 was established using the gamma counter. The percentage of injected dose per gram (% ID/g) was determined for each tissue and corrected for both the injected activity and % ID present at the injection site (the tail). Then, the tumor and the organs were placed in a petri dish and ex vivo optical imaging was performed with the IVIS Spectrum system (Perkin Elmer, Waltham, MA, USA) using the following settings for all measurements: FOV 19.5 cm, medium binning, f2, 60 s exposure with an excitation/emission filter of 646 nm/662 nm. Living Image version 4.5.2 software (Perkin Elmer) was used to perform data analysis by drawing regions of interest around the organ/tissue to quantify the radiant efficiency {(photons/second/cm^2/steradian)/(μW/cm^2)}.

[2] = Ex vivo biodistribution in H69-tumor bearing mice; conditions: mouse, in vivo
Experimental: as §1, §2

U2OS.SSTR2 cells = assay: Uptake/internalization studies in U2OS.SSTR2 cells; format: cell-based, human
Experimental: Cells were seeded in 6-well plates 24 h before the experiment (7 × 10^5 cells/well). […] The membrane-bound fraction was collected by incubating cells with an acid buffer (50 mM glycine, 100 mM NaCl, pH 2.8) for 10 min at rt. The internalized fraction was determined by lysing the cells with 1 M NaOH for 5 min at rt. Both fractions were measured in a gamma counter, and data were analyzed in GraphPad Prism v9 and expressed as percentage of added dose.

What does the source list for `C[C@@H](O)[C@H](NC(=O)[C@@H]1CSSC[C@H](NC(=O)[C@@H](Cc2ccccc2)NC(=O)CN2CCN(CC(=O)O)CCN(CC(=O)O)CCN(CC(=O)O)CC2)C(=O)N[C@@H](Cc2ccc(O)cc2)C(=O)N[C@H](Cc2c[nH]c3ccccc23)C(=O)N[C@@H](CCCCN)C(=O)N[C@@H]([C@@H](C)O)C(=O)N1)C(=O)O` [[^111In]In-DOTA-TATE, metal not drawn, reference compound]?
Uptake in Tumor ([1]; 1 h p.i.): 5.55 ± 1.31 % ID/g; Tumor uptake reduction by co-injection of an excess of DOTA-TATE ([1]; 4 h p.i., compared to the unblocked group): 98%; Uptake in Tumor ([1]; 24 h p.i.): 3.19 ± 0.29 % ID/g; tissue uptake at 4 h ([2]; Uptake in Intestines, 4 h block (co-injected 50 nmol DOTA-TATE), n = 4): 0.57 ± 0.35 %ID/g; tissue uptake at 4 h ([2]; Uptake in Kidneys, 4 h block (co-injected 50 nmol DOTA-TATE), n = 4): 7.75 ± 1.03 %ID/g; tissue uptake at 4 h ([2]; Uptake in Liver, 4 h block (co-injected 50 nmol DOTA-TATE), n = 4): 0.15 ± 0.08 %ID/g; tissue uptake at 4 h ([2]; Uptake in Skin, 4 h block (co-injected 50 nmol DOTA-TATE), n = 4): 0.28 ± 0.13 %ID/g; tissue uptake at 4 h ([2]; Uptake in Stomach, 4 h block (co-injected 50 nmol DOTA-TATE), n = 4): 0.1 ± 0.03 %ID/g; tissue uptake at 1 h ([2]; iv, Uptake in Blood, 1 h p.i., n = 4): 0.41 ± 0.12 %ID/g; tissue uptake at 24 h ([2]; iv, Uptake in Blood, 24 h p.i., n = 4): 0.04 ± 0.03 %ID/g; tissue uptake at 4 h ([2]; iv, Uptake in Bones, 4 h p.i., n = 4): 0.13 ± 0.03 %ID/g; tissue uptake at 24 h ([2]; iv, Uptake in Bones, 24 h p.i., n = 4): 0.14 ± 0.05 %ID/g; tissue uptake at 1 h ([2]; iv, Uptake in Heart, 1 h p.i., n = 4): 0.16 ± 0.08 %ID/g; tissue uptake at 4 h ([2]; iv, Uptake in Heart, 4 h p.i., n = 4): 0.04 %ID/g; tissue uptake at 1 h ([2]; iv, Uptake in Intestines, 1 h p.i., n = 4): 0.74 ± 0.3 %ID/g; tissue uptake at 4 h ([2]; iv, Uptake in Intestines, 4 h p.i., n = 4): 0.77 ± 0.24 %ID/g; tissue uptake at 24 h ([2]; iv, Uptake in Intestines, 24 h p.i., n = 4): 0.13 ± 0.01 %ID/g; tissue uptake at 1 h ([2]; iv, Uptake in Kidneys, 1 h p.i., n = 4): 12.2 ± 1.33 %ID/g; tissue uptake at 4 h ([2]; iv, Uptake in Kidneys, 4 h p.i., n = 4): 10.6 ± 0.39 %ID/g; tissue uptake at 24 h ([2]; iv, Uptake in Kidneys, 24 h p.i., n = 4): 6.93 ± 1.02 %ID/g; tissue uptake at 1 h ([2]; iv, Uptake in Liver, 1 h p.i., n = 4): 0.21 ± 0.03 %ID/g; tissue uptake at 4 h ([2]; iv, Uptake in Liver, 4 h p.i., n = 4): 0.16 ± 0.01 %ID/g; tissue uptake at 24 h ([2]; iv, Uptake in Liver, 24 h p.i., n = 4): 0.08 ± 0.01 %ID/g; tissue uptake at 1 h ([2]; iv, Uptake in Lungs, 1 h p.i., n = 4): 0.86 ± 0.09 %ID/g; tissue uptake at 4 h ([2]; iv, Uptake in Lungs, 4 h p.i., n = 4): 0.52 ± 0.13 %ID/g; tissue uptake at 4 h ([2]; iv, Uptake in Muscle, 4 h p.i., n = 4): 0.02 %ID/g; tissue uptake at 24 h ([2]; iv, Uptake in Muscle, 24 h p.i., n = 4): 0.01 ± 0.01 %ID/g; tissue uptake at 1 h ([2]; iv, Uptake in Pancreas, 1 h p.i., n = 4): 2.9 ± 0.6 %ID/g; tissue uptake at 4 h ([2]; iv, Uptake in Pancreas, 4 h p.i., n = 4): 1.3 ± 0.1 %ID/g; tissue uptake at 24 h ([2]; iv, Uptake in Pancreas, 24 h p.i., n = 4): 0.6 ± 0.05 %ID/g; tissue uptake at 1 h ([2]; iv, Uptake in Skin): 0.49 ± 0.26 %ID/g; tissue uptake at 4 h ([2]; iv, Uptake in Skin, 4 h p.i., n = 4): 0.29 ± 0.09 %ID/g; tissue uptake at 24 h ([2]; iv, Uptake in Skin, 24 h p.i., n = 4): 0.13 ± 0.02 %ID/g; tissue uptake at 24 h ([2]; iv, Uptake in Spleen): 0.11 ± 0.01 %ID/g; tissue uptake at 4 h ([2]; iv, Uptake in Spleen, 4 h p.i., n = 4): 0.13 ± 0.02 %ID/g; tissue uptake at 1 h ([2]; iv, Uptake in Stomach, 1 h p.i., n = 4): 1.84 ± 0.18 %ID/g; tissue uptake at 4 h ([2]; iv, Uptake in Stomach, 4 h p.i., n = 4): 1.23 ± 0.16 %ID/g; tissue uptake at 24 h ([2]; iv, Uptake in Stomach, 24 h p.i., n = 4): 0.51 ± 0.13 %ID/g; tissue uptake at 1 h ([2]; iv, Uptake in Tumor, 1 h p.i., n = 4): ~5 %ID/g; tissue uptake at 4 h ([2]; iv, Uptake in Tumor, 4 h p.i., n = 4): 5.47 ± 0.3 %ID/g; tissue uptake at 24 h ([2]; iv, Uptake in Tumor, 24 h p.i., n = 4): ~3 %ID/g; Internalized fraction of radioactivity (U2OS.SSTR2 cells; 10^-9 M, 90 min, 37 °C): 94%; Total uptake (U2OS.SSTR2 cells; 10^-9 M, 90 min, 37 °C, % of added dose per 1,000,000 cells, n = 3): 46.22 ± 4.58 % AD; Cell uptake with excess of unlabeled DOTA-TATE (U2OS.SSTR2 cells; 50-fold excess DOTA-TATE): almost completely blocked
